# Experimental data reported in PubChem BioAssay AID1963962 (Molecular Pharmacology Branch, DTP, NCI, 2024).
# pIC50: −log10 of the molar value.
# Tested on: 967376-340-R-J2-PDC multicell spheroid viability
# Assay: Anticancer human tumor 967376-340-R-J2-PDC patient-derived colon adenocarcinoma cell line growth inhibition [PI3K]
# Details: for pIC50: curve of first compound; for viability, T/C: stronger effect = lower value
# Summary of the method: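 Tumor cells grown as multi-cell spheroids with HUVEC endothelial cells and MSC fibroblast-like stroma were treated with targeted agents combined with inavolisib, alpelisib, duvelisib or copanlisib. Doses fell in half-log steps from near clinical Cmax, else from 10 microM. Viability was measured.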
# 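Note: spheroids exposed to agents for 7 days before read-out.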
# 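Throughout, for viability, T/C: luminescence used as surrogate of cell viability.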
smiles,measurement,setting,value
CNC(=O)c1ccc(N2C(=S)N(c3ccc(C#N)c(C(F)(F)F)c3)C(=O)C2(C)C)cc1F + COc1c(OCCCN2CCOCC2)ccc2c3n(c(=NC(=O)c4cnc(N)nc4)nc12)CCN3,pIC50,second compound 0.00316 µM,< 5.00
same,pIC50,second compound 0.01 µM,< 5.00
same,pIC50,second compound 0.0316 µM,< 5.00
same,pIC50,second compound 0.1 µM,< 5.00
same,pIC50,second compound 0.316 µM,6.41
same,pIC50,second compound 1 µM,> 7.50
same,"viability, T/C","second compound 0.00316 µM, first compound 0.0316 µM",92%
same,"viability, T/C","second compound 0.00316 µM, first compound 0.1 µM",90%
same,"viability, T/C","second compound 0.00316 µM, first compound 0.316 µM",73.3%
same,"viability, T/C","second compound 0.00316 µM, first compound 1 µM",93%
same,"viability, T/C","second compound 0.00316 µM, first compound 3.16 µM",113%
same,"viability, T/C","second compound 0.00316 µM, first compound 10 µM",102%
same,"viability, T/C","second compound 0.01 µM, first compound 0.0316 µM",90%
same,"viability, T/C","second compound 0.01 µM, first compound 0.1 µM",82.7%
same,"viability, T/C","second compound 0.01 µM, first compound 0.316 µM",65.7%
same,"viability, T/C","second compound 0.01 µM, first compound 1 µM",87.3%
same,"viability, T/C","second compound 0.01 µM, first compound 3.16 µM",105%
same,"viability, T/C","second compound 0.01 µM, first compound 10 µM",120%
same,"viability, T/C","second compound 0.0316 µM, first compound 0.0316 µM",78%
same,"viability, T/C","second compound 0.0316 µM, first compound 0.1 µM",64.9%
same,"viability, T/C","second compound 0.0316 µM, first compound 0.316 µM",64.5%
same,"viability, T/C","second compound 0.0316 µM, first compound 1 µM",60.9%
same,"viability, T/C","second compound 0.0316 µM, first compound 3.16 µM",79.9%
same,"viability, T/C","second compound 0.0316 µM, first compound 10 µM",66%
same,"viability, T/C","second compound 0.1 µM, first compound 0.0316 µM",65.7%
same,"viability, T/C","second compound 0.1 µM, first compound 0.1 µM",64.3%
same,"viability, T/C","second compound 0.1 µM, first compound 0.316 µM",64.5%
same,"viability, T/C","second compound 0.1 µM, first compound 1 µM",51%
same,"viability, T/C","second compound 0.1 µM, first compound 3.16 µM",53.3%
same,"viability, T/C","second compound 0.1 µM, first compound 10 µM",64.6%
same,"viability, T/C","second compound 0.316 µM, first compound 0.0316 µM",50.3%
same,"viability, T/C","second compound 0.316 µM, first compound 0.1 µM",50.3%
same,"viability, T/C","second compound 0.316 µM, first compound 0.316 µM",54.5%
same,"viability, T/C","second compound 0.316 µM, first compound 1 µM",34.8%
same,"viability, T/C","second compound 0.316 µM, first compound 3.16 µM",37.5%
same,"viability, T/C","second compound 0.316 µM, first compound 10 µM",54.2%
same,"viability, T/C","second compound 1 µM, first compound 0.0316 µM",35%
same,"viability, T/C","second compound 1 µM, first compound 0.1 µM",36.5%
same,"viability, T/C","second compound 1 µM, first compound 0.316 µM",39.8%
same,"viability, T/C","second compound 1 µM, first compound 1 µM",34.6%
same,"viability, T/C","second compound 1 µM, first compound 3.16 µM",36.6%
same,"viability, T/C","second compound 1 µM, first compound 10 µM",28.1%
Cn1cnc2c(F)c(Nc3ccc(Br)cc3Cl)c(C(=O)NOCCO)cc21 + COc1c(OCCCN2CCOCC2)ccc2c3n(c(=NC(=O)c4cnc(N)nc4)nc12)CCN3,pIC50,second compound 0.00316 µM,5.55
same,pIC50,second compound 0.01 µM,5.68
same,pIC50,second compound 0.0316 µM,6.00
same,pIC50,second compound 0.1 µM,6.48
same,pIC50,second compound 0.316 µM,> 8.02
same,pIC50,second compound 1 µM,> 8.02
same,"viability, T/C","second compound 0.00316 µM, first compound 0.00949 µM",85.7%
same,"viability, T/C","second compound 0.00316 µM, first compound 0.03 µM",79.2%
same,"viability, T/C","second compound 0.00316 µM, first compound 0.0949 µM",87.5%
same,"viability, T/C","second compound 0.00316 µM, first compound 0.3 µM",67.9%
same,"viability, T/C","second compound 0.00316 µM, first compound 0.949 µM",80.5%
same,"viability, T/C","second compound 0.00316 µM, first compound 3 µM",48.7%
same,"viability, T/C","second compound 0.01 µM, first compound 0.00949 µM",106%
same,"viability, T/C","second compound 0.01 µM, first compound 0.03 µM",86.6%
same,"viability, T/C","second compound 0.01 µM, first compound 0.0949 µM",66.9%
same,"viability, T/C","second compound 0.01 µM, first compound 0.3 µM",79.9%
same,"viability, T/C","second compound 0.01 µM, first compound 0.949 µM",87%
same,"viability, T/C","second compound 0.01 µM, first compound 3 µM",33.4%
same,"viability, T/C","second compound 0.0316 µM, first compound 0.00949 µM",80.1%
same,"viability, T/C","second compound 0.0316 µM, first compound 0.03 µM",61.2%
same,"viability, T/C","second compound 0.0316 µM, first compound 0.0949 µM",51.7%
same,"viability, T/C","second compound 0.0316 µM, first compound 0.3 µM",53.2%
same,"viability, T/C","second compound 0.0316 µM, first compound 0.949 µM",57.6%
same,"viability, T/C","second compound 0.0316 µM, first compound 3 µM",15.3%
same,"viability, T/C","second compound 0.1 µM, first compound 0.00949 µM",49.2%
same,"viability, T/C","second compound 0.1 µM, first compound 0.03 µM",59.9%
same,"viability, T/C","second compound 0.1 µM, first compound 0.0949 µM",49.6%
same,"viability, T/C","second compound 0.1 µM, first compound 0.3 µM",53.1%
same,"viability, T/C","second compound 0.1 µM, first compound 0.949 µM",19.8%
same,"viability, T/C","second compound 0.1 µM, first compound 3 µM",1.95%
same,"viability, T/C","second compound 0.316 µM, first compound 0.00949 µM",28.5%
same,"viability, T/C","second compound 0.316 µM, first compound 0.03 µM",65.1%
same,"viability, T/C","second compound 0.316 µM, first compound 0.0949 µM",46.9%
same,"viability, T/C","second compound 0.316 µM, first compound 0.3 µM",23.9%
same,"viability, T/C","second compound 0.316 µM, first compound 0.949 µM",1.63%
same,"viability, T/C","second compound 0.316 µM, first compound 3 µM",1.2%
same,"viability, T/C","second compound 1 µM, first compound 0.00949 µM",44.2%
same,"viability, T/C","second compound 1 µM, first compound 0.03 µM",25.5%
same,"viability, T/C","second compound 1 µM, first compound 0.0949 µM",32.3%
same,"viability, T/C","second compound 1 µM, first compound 0.3 µM",16.7%
same,"viability, T/C","second compound 1 µM, first compound 0.949 µM",1.19%
same,"viability, T/C","second compound 1 µM, first compound 3 µM",1.28%
